In series [1] the test system is vasculature in adult fish. Kind of series: Effect on vasculature in adult zebrafish. The series is classed as in vivo. The following applies: mature vasculature.
The test system of series [2] is orthotopic 4T1 mammary tumors. Description: Tumor growth delay study, 4T1. The series is classed as in vivo, female SCID mice. The conditions noted are these: 4T1 tumors, start ~200 mm^3, 37.5 mg/kg daily i.p. The protocol:
(§1) To assess the anti-tumor effects of DAL, female SCID mice bearing orthotopic 4T1 or E0771 mammary tumors were treated with daily i.p. injections of 37.5 mg/kg DAL or saline. In order to calculate tumor volumes, the major and minor axis diameters were measured with calipers and the tumor volume was calculated by assuming a spherical shape based on the average of these two dimensions. The tumors were implanted in the mammary fat pad and allowed to grow to a starting size (small ˜100 mm^3 tumors for E0771, large ˜200 mm^3 tumors for 4T1) over ˜2 weeks. To ensure that tumors in the two groups were of similar growth rates, the treatment with saline or DAL was begun in pairs of tumors with similar sizes and growth times. Tumor volumes were measured every other day until the tumors reached an average of ˜10 mm in diameter. Tumor growth was quantified with the doubling rate, and calculated by fitting an exponential growth curve to the data for tumor size versus time.
(§2) As shown in Example 3, DAL has an antivascular effect in orthotopic mammary tumors in mice. Thus, the antitumor effect of DAL was next assessed. […] The effect of DAL on the growth of orthotopic 4T1 and E0771 mammary tumors with daily treatment of DAL or saline was evaluated (FIG. 4A). 37.5 mg/kg of DAL was used for these experiments based on the pharmacokinetics results as well as in vitro and in vivo data. […]

Details of series [3]: species or system female SCID mice. The conditions noted are these: mouse, in vivo, ip, 37.5 mg/kg. The protocol: as §1, §2
A further series deals with HUVEC. Description: F-actin visualization and cell shape in HUVECs (phalloidin). The format is cell-based, human. The conditions noted are these: 10 μM, three hours. As for the experimental part:
For F-actin visualization, HUVECs were plated and treated with saline or DAL (10 μM) for three hours. After fixing and permeabilizing these cultured cells, the cells were subsequently stained with phalloidin. […] Existing cordlike structures, when exposed to 10 μM of DAL for 3 hours, were also disrupted. […] HUVEC monolayers were disrupted mechanically with a pipette tip and the migration of cells to “heal” the wound was monitored using microscopy.
To gain further insight into the anti-vascular effects of DAL and to assess the involvement of DAL in modulating actin assembly, normal human umbilical vein endothelial cells(HUVEC) were plated and treated with 10 μM DAL for three hours. The cells were fixed, permeabilized, and subsequently stained with phalloidin to visualize F-actin (FIG. 5A).

The subject of another series is Cdc42. Description: Cdc42 activation pull-down assay (PAK-PBD) in HUVECs. The series is classed as cell-based, human. The protocol: Rac1 and cdc42 activities were measured with a Rac1 (BK035) activation assay biochem kit (Cytoskeleton) according to the manufacturer protocol. In brief, human umbilical vein endothelial cells (HUVECs) were bovine brain extract-starved for 12 hours in 1% FBS-EGM (Lonza) and pretreated with various concentrations of DAL for 30 minutes at 37° C. The HUVECs were then stimulated with VEGF at […] for 15 minutes at 37° C. After stimulation, the cells were immediately incubated on ice, washed twice with PBS, and lysed with lysis buffer. The lysates were pre-cleared and added with 15 μl of PAK-PBD beads for pull-down of activated Rac1 or cdc42. After rocking at 4° C. for 1 hour, the beads were washed once and boiled at 100° C. for 2 minutes. The protein lysates were then resolved in a 8-16% gradient gel (Invitrogen) and transferred to a PVDF membrane. Primary antibodies (anti-Rac1, 1:1000, cytoskeleton or anti-cdc42, 1:1000, cell signaling) were added to bind to the protein overnight at 4° C., followed by incubation with HRP-conjugated secondary antibodies. Protein activity was measured by the standard ECL method (Amersham).
Without wishing to be bound by theory, DAL brings about its antivascular effects by destabilizing cell adhesion through the actin cytoskeleton. […] Therefore, potential targets of DAL in signaling pathways involved in actin remodeling were evaluated. […]

The next series has as its system RhoA. Kind of series: RhoA activity affinity purification assay (rhotekin RBD). The series is classed as cell-based, human. The conditions noted are these: HUVEC cells. From the text: Without wishing to be bound by theory, DAL brings about its antivascular effects by destabilizing cell adhesion through the actin cytoskeleton. It was next sought to identify which specific adhesion pathway it targets. Mechanical attachment at cell-cell adherens and tight junctions is regulated by dynamic changes in the actin cytoskeleton. Adherens junctions are composed of E-cadherin/β-catenin complexes and are connected to the actin cytoskeleton via sa-catenin (25-26), while tight junctions consist of transmembrane claudins and occludin and are associated with the actin cytoskeleton via ZO proteins (27-28). Therefore, potential targets of DAL in signaling pathways involved in actin remodeling were evaluated. […] Then, it was sought to determine whether Rho-GTPase family members are targets for DAL due to the disruption of cell adhesion and actin network remodeling along with inhibited motility. Rho-GTPases (e.g., Rac1) plays an important role in actin cytoskeletal organization and is involved in the coordination of cell adhesion (29). Furthermore, Rac1 is responsible for stabilizing endothelial cell junctions by opposing actin remodeling by Rho (30). In order to migrate, cancer cells employ dynamic remodeling of the actin cytoskeleton, form protrusive structures and generate forces necessary to produce cell translocation in the process regulated by Rho-GTPase Rac1. […]

The test system of the next series is Rac1 mRNA. Description: Rac1 mRNA expression by quantitative PCR. The format is cell-based.
For another series, the target named is AKT1 (Homo sapiens, UniProt P31749). Kind of series: Kinase inhibition screening. The series is classed as biochemical. The following applies: 10-dose, starting at 100 μM, 1 μM ATP. The protocol: (§3) To determine kinase activity of DAL, various kinases (AKT1, AKT2, AKT3, PKA, PKC alpha, PKC delta, PAK1, EPHB2, EPHB4, p38 alpha, PI3K-alpha, PI3K-beta, PI3K-gamma, PI3K-delta) were screened in a 10-dose IC50 mode with threefold serial dilutions starting at 100 μM. Staurosporine was used as a control starting at 10 μM and the reactions were carried out at 1 μM ATP.
Chain of AKT1 (P31749 whole entry, species assumed): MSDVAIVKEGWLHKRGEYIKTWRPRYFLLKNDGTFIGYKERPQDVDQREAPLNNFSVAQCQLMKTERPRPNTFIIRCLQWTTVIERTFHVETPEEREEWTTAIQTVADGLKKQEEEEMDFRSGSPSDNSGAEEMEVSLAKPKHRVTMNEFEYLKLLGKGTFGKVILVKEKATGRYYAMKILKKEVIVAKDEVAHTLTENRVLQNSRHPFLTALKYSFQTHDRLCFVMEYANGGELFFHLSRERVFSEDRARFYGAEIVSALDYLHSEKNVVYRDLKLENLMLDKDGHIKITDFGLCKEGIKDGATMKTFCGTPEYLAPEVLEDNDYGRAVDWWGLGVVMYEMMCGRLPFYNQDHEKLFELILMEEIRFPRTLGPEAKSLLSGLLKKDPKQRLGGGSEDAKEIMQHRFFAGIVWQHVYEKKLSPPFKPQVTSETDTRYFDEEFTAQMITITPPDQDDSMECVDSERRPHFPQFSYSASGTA
(§4) Without wishing to be bound by theory, DAL brings about its antivascular effects by destabilizing cell adhesion through the actin cytoskeleton. It was next sought to identify which specific adhesion pathway it targets. Mechanical attachment at cell-cell adherens and tight junctions is regulated by dynamic changes in the actin cytoskeleton. Adherens junctions are composed of E-cadherin/β-catenin complexes and are connected to the actin cytoskeleton via sa-catenin (25-26), while tight junctions consist of transmembrane claudins and occludin and are associated with the actin cytoskeleton via ZO proteins (27-28). Therefore, potential targets of DAL in signaling pathways involved in actin remodeling were evaluated. […] Then, it was sought to determine whether Rho-GTPase family members are targets for DAL due to the disruption of cell adhesion and actin network remodeling along with inhibited motility. Rho-GTPases (e.g., Rac1) plays an important role in actin cytoskeletal organization and is involved in the coordination of cell adhesion (29). Furthermore, Rac1 is responsible for stabilizing endothelial cell junctions by opposing actin remodeling by Rho (30). In order to migrate, cancer cells employ dynamic remodeling of the actin cytoskeleton, form protrusive structures and generate forces necessary to produce cell translocation in the process regulated by Rho-GTPase Rac1. To assess whether DAL can modulate Rac1, RhoA, and Cdc42 activities, affinity purification assays were employed to monitor RhoA and Cdc42/Rac1 activity. The Rho-Binding Domain (RBD) of the Rho effector protein rhotekin and the p21 Binding Domain (PBD) of the Cdc42/Rac effector protein p21 activated kinase 1 (PAK) were applied to pull down active forms of each protein.

Another series concerns the target EPHB2 (Homo sapiens, UniProt P29323). Description: Kinase inhibition screening. The format is biochemical. The conditions noted are these: 10-dose, starting at 100 μM, 1 μM ATP. As for the experimental part: as §3, §4
The next series concerns the target PKC alpha (Homo sapiens, UniProt P17252). Kind of series: Kinase inhibition screening. The conditions noted are these: 10-dose, starting at 100 μM, 1 μM ATP. The series is classed as biochemical. The protocol:
as §3, §4

Chain of EPHB2 (P29323 19-1055, species assumed): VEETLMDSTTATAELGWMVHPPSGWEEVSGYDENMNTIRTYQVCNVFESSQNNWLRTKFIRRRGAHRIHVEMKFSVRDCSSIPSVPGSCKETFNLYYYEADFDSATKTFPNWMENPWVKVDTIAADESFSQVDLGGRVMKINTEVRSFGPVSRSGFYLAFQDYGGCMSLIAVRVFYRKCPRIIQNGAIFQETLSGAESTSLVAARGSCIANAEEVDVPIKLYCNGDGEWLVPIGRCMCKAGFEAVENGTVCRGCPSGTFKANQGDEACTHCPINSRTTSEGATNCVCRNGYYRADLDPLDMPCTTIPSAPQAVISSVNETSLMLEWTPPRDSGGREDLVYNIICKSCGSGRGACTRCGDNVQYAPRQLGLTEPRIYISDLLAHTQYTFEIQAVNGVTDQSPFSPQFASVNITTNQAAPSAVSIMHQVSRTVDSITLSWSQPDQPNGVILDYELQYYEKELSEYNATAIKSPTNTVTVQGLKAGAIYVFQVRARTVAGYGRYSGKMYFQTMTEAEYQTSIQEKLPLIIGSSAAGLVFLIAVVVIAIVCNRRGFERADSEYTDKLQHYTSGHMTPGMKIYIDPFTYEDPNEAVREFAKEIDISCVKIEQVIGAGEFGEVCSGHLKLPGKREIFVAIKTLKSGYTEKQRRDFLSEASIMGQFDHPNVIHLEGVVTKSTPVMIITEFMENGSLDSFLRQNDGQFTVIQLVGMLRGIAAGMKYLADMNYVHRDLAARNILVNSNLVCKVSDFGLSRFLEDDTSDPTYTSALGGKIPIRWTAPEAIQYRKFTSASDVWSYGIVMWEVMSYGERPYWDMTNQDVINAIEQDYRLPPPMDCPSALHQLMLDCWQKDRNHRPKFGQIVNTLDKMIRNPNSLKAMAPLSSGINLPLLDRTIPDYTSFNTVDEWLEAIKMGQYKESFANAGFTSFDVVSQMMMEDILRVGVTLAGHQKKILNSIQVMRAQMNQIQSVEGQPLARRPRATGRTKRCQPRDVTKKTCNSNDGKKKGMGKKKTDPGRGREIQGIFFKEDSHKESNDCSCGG

In the case of `CC1(C)C=CC2=C(O1)C(=O)c1ccccc1C2=O` [DAL, dehydro-alpha-lapachone], in [1], the “effects on the vasculature in adult fish” value is “did not show any effects”. In addition, the “tumor volume doubling time” value in [2] was found to be 11.21 ± 3.53 days. Also, the “weight loss or other signs of toxicity” value in series [3] is recorded as “no weight loss or other noted signs of toxicity”. In addition, the “cell size and shape” value in the series with HUVEC was “smaller than untreated control cells and had a rounded shape”. Besides, the F-actin organization result in the series on HUVEC (phalloidin) is “actin present only as small fibers and spots throughout the cells or accumulated close to the nuclei”. Also, in the series on Cdc42, the Cdc42 activity result was “no effect”. In the series with RhoA, the RhoA activity result was “no effect”. Moreover, in the series with Rac1 mRNA, the “expression levels of Rac1 mRNA” value is “did not change”. Also, the “effect on kinase AKT1” value on AKT1 was “no significant effects”. Moreover, the “effect on kinase EPHB2” value at EPHB2 is “no significant effects”. For the same compound, the “effect on kinase PKC alpha” value on PKC alpha was “no significant effects”.

The record behind these values is patent US20140161720A1, “TREATMENT OF ANGIOGENIC- OR VASCULAR-ASSOCIATED DISEASES” (THE GENERAL HOSPITAL CORPORATION, priority 2011, published 2014).
